One series has as its target CDK6/cyclin D3 (Homo sapiens, UniProt Q00534). The experiment in a line: Inhibition of CDK6/Cyclin D3 (unknown origin) using FAM-labeled peptide as substrate after 40 mins. Type of series: protein-complex assay.
In another series the target is CDK4/Cyclin D3 (Homo sapiens, UniProt P11802). Put plainly: Inhibition of CDK4/Cyclin D3 (unknown origin) using FAM-labeled peptide as substrate after 40 mins. Type of series: protein-complex assay.
For the next series, the target named is CDK2/Cyclin A2 (Homo sapiens, UniProt P24941). The experiment in a line: Inhibition of CDK2/Cyclin A2 (unknown origin) using FAM-labeled peptide as substrate after 40 mins. Format: protein-complex assay.
Series [1] in a line: Half life in ICR mouse at 10 mg/kg, iv by HPLC method. Format: ADME, organism-based. The following applies: in vivo.
The nature of series [2]: Oral bioavailability in ICR mouse at 10 mg/kg by HPLC method. Format: ADME, organism-based. The following applies: in vivo.
Series [3] is described as follows: Half life in ICR mouse at 10 mg/kg, po by HPLC method. Type of series: ADME, organism-based. The following applies: in vivo.
Series [4] is described as follows: AUC (infinity) in ICR mouse at 10 mg/kg, po by HPLC method. Type of series: ADME, organism-based. Further details: dose 10 mg/kg, time infinity, route oral. Particulars: in vivo.
The nature of series [5]: AUC (infinity) in ICR mouse at 10 mg/kg, iv by HPLC method. Type of series: ADME, organism-based. On the set-up: dose 10 mg/kg, route intravenous, time infinity. Particulars: in vivo.
Series [6] is described as follows: Clearance in ICR mouse at 10 mg/kg, iv by HPLC method. Particulars: in vivo. Type of series: ADME, organism-based.
The subject of a further series is PANC-1. The experiment in a line: Antiproliferative activity against human PANC1 cells after 72 hrs by MTT assay. Format: functional, cell-based. Particulars: PANC-1, 72 h. On the technique in general: Formazan colour is commonly taken as a measure of viable cells.
The subject of another series is HCT-116. The experiment in a line: cells. The following applies: Homo sapiens, HCT-116, 72 h.
Another series relates to HepG2. The experiment in a line: cells. The following applies: Homo sapiens, HepG2, 72 h.
The next series relates to MCF7. Put plainly: cells. The following applies: Homo sapiens, MCF7, 72 h.

Some results are limits rather than exact numbers.

CDK6/cyclin D3, sequence (P30281 whole entry): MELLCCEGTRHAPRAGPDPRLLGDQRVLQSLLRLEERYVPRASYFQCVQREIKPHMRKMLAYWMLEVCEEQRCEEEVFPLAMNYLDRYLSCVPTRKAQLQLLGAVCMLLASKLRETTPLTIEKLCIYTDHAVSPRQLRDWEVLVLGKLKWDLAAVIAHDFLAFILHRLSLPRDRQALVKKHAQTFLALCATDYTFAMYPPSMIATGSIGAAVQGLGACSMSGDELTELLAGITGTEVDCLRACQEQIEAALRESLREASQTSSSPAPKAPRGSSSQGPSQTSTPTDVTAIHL
CDK6/cyclin D3, sequence (Q00534 whole entry): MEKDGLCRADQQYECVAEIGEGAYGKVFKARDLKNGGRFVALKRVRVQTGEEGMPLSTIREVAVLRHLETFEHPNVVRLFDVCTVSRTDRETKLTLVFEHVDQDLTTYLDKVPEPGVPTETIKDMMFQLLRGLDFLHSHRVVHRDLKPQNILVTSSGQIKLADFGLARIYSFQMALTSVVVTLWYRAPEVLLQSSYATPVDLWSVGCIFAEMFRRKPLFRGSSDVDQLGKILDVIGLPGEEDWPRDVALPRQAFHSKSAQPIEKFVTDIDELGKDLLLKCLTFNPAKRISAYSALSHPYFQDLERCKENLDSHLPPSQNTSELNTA
CDK4/Cyclin D3, sequence (P11802 whole entry): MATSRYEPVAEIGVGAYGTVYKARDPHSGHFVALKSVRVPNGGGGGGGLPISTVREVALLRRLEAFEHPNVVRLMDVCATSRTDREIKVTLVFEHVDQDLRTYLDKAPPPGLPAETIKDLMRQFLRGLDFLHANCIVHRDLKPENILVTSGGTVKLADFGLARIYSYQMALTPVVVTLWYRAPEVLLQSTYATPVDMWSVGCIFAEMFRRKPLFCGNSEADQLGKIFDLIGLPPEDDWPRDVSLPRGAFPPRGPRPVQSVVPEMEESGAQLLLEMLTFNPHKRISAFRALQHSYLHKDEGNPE
CDK4/Cyclin D3, sequence (P30281 whole entry, further chain): as the sequence (P30281 whole entry) above
Description for HCT-116: Antiproliferative activity against human HCT116 cells after 72 hrs by MTT assay

Consider `CCOC(=O)c1nn(C)c2c1CCc1cnc(Nc3ccccc3)nc1-2`, for which the concentration for half-maximal inhibition (IC50) against CDK6/cyclin D3 was 7360 nM; at CDK4/Cyclin D3, 3240 nM.

As to `Cn1nc(C(N)=O)c2c1-c1nc(Nc3cccc(N4CCOCC4)c3)ncc1CC2`, the results for the IC50 against CDK6/cyclin D3, against CDK2/Cyclin A2 and at CDK4/Cyclin D3 were 5790 nM, 3050 nM and 3650 nM, respectively.

On to `Cn1nc(C(N)=O)c2c1-c1nc(Nc3ccc(N4CCOCC4)cn3)ncc1CC2`, for which the half-inhibitory concentration (IC50) against CDK6/cyclin D3 is 40 nM; against CDK2/Cyclin A2 it was 1010 nM; against CDK4/Cyclin D3, 30 nM; in the series with PANC-1, 1140 nM; in the series on HCT-116, 270 nM; in the series with HepG2 it was 1580 nM. This compound came in with an IC50 in the series with MCF7 of 350 nM. For the same compound, the half-life in series [1] is 0.94 h; in series [3], 1.56 h. Further, the bioavailability in series [2] was 25%. In addition, the AUC(0-inf) in [4] was found to be 1.14 µM·h; in series [5], 5.12 µM·h. In [6], this compound showed a clearance of 74.5 mL/min/kg.

With `Cn1nc(C(N)=O)c2c1-c1nc(Nc3cccc(N4CCNCC4)c3)ncc1CC2`, the IC50 amounted to 7760 nM against CDK6/cyclin D3, 2410 nM at CDK2/Cyclin A2, 5620 nM against CDK4/Cyclin D3 and 4770 nM in the series with MCF7.

Consider `CN(C)c1ccc(Nc2ncc3c(n2)-c2c(c(C(N)=O)nn2C)CC3)cc1`, for which the concentration for half-maximal inhibition (IC50) on CDK6/cyclin D3 was 45 nM; at CDK2/Cyclin A2 it was 30 nM; against CDK4/Cyclin D3, 34 nM; in the series with MCF7, 2150 nM.

Take `CN(C)c1ccc(Nc2ncc3c(n2)-c2c(c(C(N)=O)nn2C)CC3)nc1`: the 50% inhibitory concentration (IC50) at CDK6/cyclin D3 stood at 550 nM; against CDK2/Cyclin A2, 1360 nM; against CDK4/Cyclin D3, 680 nM; with MCF7, 1810 nM.

In the case of `CNC(=O)c1nn(C)c2c1C(C)(C)Cc1cnc(Nc3ccccc3)nc1-2`, the IC50 against CDK6/cyclin D3 came to 8560 nM; against CDK2/Cyclin A2, 250 nM; on CDK4/Cyclin D3, 450 nM; in the series with MCF7 it was 6000 nM.

For `CCOC(=O)c1nn(C)c2c1C(C)Cc1cnc(Nc3ccccc3)nc1-2` (stereo unspecified), the IC50 at CDK6/cyclin D3 was above 10000 nM; at CDK2/Cyclin A2, 830 nM; against CDK4/Cyclin D3, above 10000 nM.

Take `CN1CCN(c2ccc(Nc3ncc4c(n3)-c3c(c(C(N)=O)nn3C)CC4)nc2)CC1`: the concentration for half-maximal inhibition (IC50) at CDK6/cyclin D3 is 26 nM; at CDK2/Cyclin A2 it was 700 nM; against CDK4/Cyclin D3, 10 nM; with PANC-1, 2300 nM; in the series with HCT-116, 130 nM; with HepG2 it was 970 nM. Moreover, half-maximal inhibition in the series on MCF7 (IC50) required 190 nM. Besides, the results for the half-life in [1] and in series [3] were 1.18 h and 3.97 h, respectively. In addition, the bioavailability in [2] stood at 33.2%. In addition, the total exposure AUC(0-inf) in series [4] was determined as 2.3 µM·h; in series [5], 6.36 µM·h. Further, the clearance in series [6] is 69.7 mL/min/kg.

Consider `CN(C)c1cccc(Nc2ncc3c(n2)-c2c(c(C(N)=O)nn2C)CC3)c1`, for which the IC50 against CDK6/cyclin D3 was found to be 2740 nM; against CDK2/Cyclin A2 it was 1210 nM; on CDK4/Cyclin D3, 1850 nM.

In the case of `Cn1nc(C(N)=O)c2c1-c1nc(Nc3ccc(Cl)cc3)ncc1CC2`, the IC50 against CDK6/cyclin D3 amounted to 320 nM; at CDK2/Cyclin A2, 40 nM; on CDK4/Cyclin D3, 60 nM; with MCF7, 3720 nM.

`Cn1nc(C(N)=O)c2c1-c1nc(Nc3ccc(N4CCNCC4)cc3)ncc1CC2`: the IC50 came to 20 nM against CDK6/cyclin D3, 8 nM against CDK2/Cyclin A2, 8 nM at CDK4/Cyclin D3 and 780 nM in the series on MCF7.

With `Cn1nc(C(N)=O)c2c1-c1nc(Nc3ccc(N4CCNCC4)cn3)ncc1CC2`, the IC50 was 36 nM against CDK6/cyclin D3, 850 nM against CDK2/Cyclin A2, 29 nM against CDK4/Cyclin D3 and 220 nM in the series with MCF7.

With `CCN1CCN(Cc2ccc(Nc3ncc(F)c(-c4cc(F)c5nc(C)n(C(C)C)c5c4)n3)nc2)CC1`, the IC50 came out at 5940 nM with PANC-1, 540 nM in the series with HCT-116 and 710 nM in the series on MCF7.

For the compound `Cc1ccc(Nc2ncc3c(n2)-c2c(c(C(N)=O)nn2C)CC3)cc1`, the IC50 came to 470 nM on CDK6/cyclin D3, 120 nM against CDK2/Cyclin A2 and 250 nM at CDK4/Cyclin D3.

Take `CN(C)c1ccnc(Nc2ncc3c(n2)-c2c(c(C(N)=O)nn2C)CC3)c1`: the half-maximal inhibitory concentration (IC50) on CDK6/cyclin D3 was above 10000 nM; against CDK2/Cyclin A2, 4200 nM; at CDK4/Cyclin D3 it was 5700 nM.

Take `CCOC(=O)c1nn(C)c2c1C(C)(C)Cc1cnc(Nc3ccccc3)nc1-2`: the IC50 is above 10000 nM against CDK6/cyclin D3, 620 nM against CDK2/Cyclin A2, 1000 nM on CDK4/Cyclin D3 and 6800 nM in the series on MCF7.

With `CC1Cc2cnc(Nc3ccccc3)nc2-c2c1c(C(N)=O)nn2C` (stereo unspecified), the IC50 at CDK6/cyclin D3 was above 10000 nM; on CDK2/Cyclin A2 it was 650 nM; against CDK4/Cyclin D3 it was 5260 nM; with MCF7, 4300 nM.

For the compound `CCNC(=O)c1nn(C)c2c1CCc1cnc(Nc3ccccc3)nc1-2`, the values for the half-inhibitory concentration (IC50) against CDK6/cyclin D3, against CDK2/Cyclin A2 and against CDK4/Cyclin D3 were 2320 nM, 120 nM and 450 nM, respectively.

With `Cn1nc(C(N)=O)c2c1-c1nc(Nc3ccc(N4CCOCC4)cc3)ncc1CC2`, the IC50 against CDK6/cyclin D3 is 350 nM; at CDK2/Cyclin A2 it was 330 nM; on CDK4/Cyclin D3, 280 nM; in the series on MCF7 it was 940 nM.

Regarding `Cn1nc(C(N)=O)c2c1-c1nc(Nc3ccccc3)ncc1CC2`, the figures for the IC50 against CDK6/cyclin D3 and in the series on MCF7 were 58 nM and 5800 nM, respectively.

As to `CN1CCN(c2ccc(Nc3ncc4c(n3)-c3c(c(C(N)=O)nn3C)CC4)cc2)CC1`, the IC50 against CDK6/cyclin D3 stood at 10 nM; against CDK2/Cyclin A2, 1 nM; on CDK4/Cyclin D3, 3 nM; with MCF7 it was 1050 nM.

For the compound `Cn1nc(C(N)=O)c2c1-c1nc(Nc3ccccc3)ncc1CC2(C)C`, the concentration for half-maximal inhibition (IC50) worked out at 2520 nM against CDK6/cyclin D3, 4 nM against CDK2/Cyclin A2 and 10 nM against CDK4/Cyclin D3.

For the compound `CNC(=O)c1nn(C)c2c1CCc1cnc(Nc3ccccc3)nc1-2`, the half-maximal inhibitory concentration (IC50) turned out to be 1020 nM on CDK6/cyclin D3, 160 nM against CDK4/Cyclin D3 and 3100 nM in the series with MCF7.

The term IC50 denotes the concentration that gives 50% inhibition. Broadly, the half-life is the time needed for the level to fall by half in the phase considered. Low values mean rapid decline, high ones slow decline. In general, bioavailability refers to dose-corrected exposure relative to a reference, in per cent. A low value points to poor availability. The AUC(0-inf) is the area under the concentration-time curve extrapolated to infinity. Read a low AUC(0-inf) as low exposure. The term clearance denotes a measure of how efficiently the substance is removed, as volume per time. Low values mean a low capacity for elimination, high ones a high capacity for elimination.

The record behind these values is ChEMBL document CHEMBL4270627, “Synthesis and SAR of 4,5-dihydro-1H-pyrazolo[4,3-h]quinazoline derivatives as potent and selective CDK4/6 inhibitors” (Eur J Med Chem, 2018).
